Assay results published in US20260365654A1, “PRMT5 INHIBITOR AND USE THEREOF” (SHANGHAI APEIRON THERAPEUTICS COMPANY LIMITED, priority 2022, published 2026).
pIC50: −log10 of the molar value.

Key:
[1] = system: HCT-116 MTAP(−/−)deleted cells; assay: Inhibitory activity of compounds on the proliferation of HCT-116 MTAP(−/−)deleted cells; assay type: cell-based; conditions: Cell-Titer Glo, 8 d, 0-10,000 nM, 3-fold dilution, 10 points, 0.1% DMSO
Text: Test case 1: Inhibitory activity of compounds on the proliferation of HCT-116 MTAP(−/−)deleted cells Materials and cells: HCT-116 MTAP(−/−)deleted cells were purchased from Botron Healthcare (China); RPMI-1640 medium, fetal bovine serum and penicillin-streptomycin were purchased from Thermo Fisher (United States); 384-well plates were purchased from PerkinElmer (United States); Cell-Titer Glo kit was purchased from Promega (United States).
Cell culture: HCT116 MTAP(−/−)deleted cells were cultured with RPMI 1640 medium containing 10% fetal bovine serum +1% penicillin-streptomycin at 37 °C in 5% CO2. Only cells in the logarithmic growth phase could be used for the test.
Test of inhibitory activity on cell proliferation: The Cell-Titer Glo kit was used to test the proliferation inhibitory activity of the compounds on HCT-116 MTAP(−/−)deleted cells. The cell concentration was adjusted, It was inoculated at 40 μL per well into a 384-well plate and incubated overnight at 37 °C in 5% CO2. 40 μL of the compound was added to each well to reach a final concentration of 0-10,000 nM (starting concentration 10,000 nM, 3-fold dilution, 10 points), and the cell plate with 0.1% DMSO content was incubated at 37 °C and 5% CO2 for 8 d. 40 μL of Cell-Titer Glo reagent was added to test cell viability.

HCT-116 wild-type cells = assay: Proliferation inhibitory activity of compound on HCT-116 Wild Type cells; assay type: cell-based; conditions: Cell-Titer Glo, 8 d, 0-10,000 nM, 2-fold dilution, 10 points, 0.1% DMSO
Method: Test case 2: Test on proliferation inhibitory activity of compound on HCT-116 Wild Type cells Materials and cells: HCT-116 wild-type cells were purchased from Botron Healthcare (China); RPMI-1640 medium, fetal bovine serum and penicillin-streptomycin were purchased from Thermo Fisher (United States); 384-well plates were purchased from PerkinElmer (United States); Cell-Titer Glo kit was purchased from Promega (United States).
Cell culture: HCT-116 wild-type cells were cultured with a RPMI-1640 medium containing […]+1% penicillin-streptomycin at 37 °C in 5% CO2. Only cells in the logarithmic growth phase could be used for the test.
Test of cell proliferation activity: Cell-Titer Glo kit was used to test the proliferation inhibitory activity of the compound on HCT-116 wild-type cells. The cell concentration was adjusted, 40 μL per well was inoculated into a 384-well plate and incubated overnight at 37 °C in […]. 40 nL of the compound was added to each well to reach a final concentration of 0-10,000 nM (starting concentration 10,000 nM, 2-fold dilution, 10 points), and the cell plate with 0.1% DMSO content was incubated at 37 °C and […] for 8 d. 40 μL of Cell-Titer Glo reagent was added to test cell viability.

Row | Compound | pIC50 ([1]; Homo sapiens, 192 h) | pIC50 (HCT-116 wild-type cells; Homo sapiens, 192 h) | pIC50 [1] | pIC50 (HCT-116 wild-type cells)
1 | Nc1nc2cc(Cl)c(C(=O)N3CCOCC3c3ccc(C(F)(F)F)cc3)cc2n2cncc12 (stereo in doubt) [Example 4A, (3R)-3-[4-(trifluoromethyl)phenyl]morpholin-4-yl 4-amino-7-chloro(10-hydroimidazo[1,5-a]quinoxalin-8-yl)one] | 8.19 | 6.29 |  | 
2 | Nc1nc2cc(Cl)c(C(=O)N3CCOCC3c3ccc(C(F)(F)F)cc3)cc2n2cncc12 (stereo in doubt) [Example 4B, (3S)-3-[4-(trifluoromethyl)phenyl]morpholin-4-yl 4-amino-7-chloro(10-hydroimidazo[1,5-a]quinoxalin-8-yl)one] | 5.56 | 5.19 |  | 
3 | Nc1nc2ccc(C(=O)N3CCCC[C@@H]3c3ccc(F)cc3)cc2n2cccc12 [Example 1, (R)-(4-aminopyrrolo[1,2-a]quinoxalin-8-yl)(2-(4-fluorophenyl)piperidin-1-yl)methanone] | 5.41 | 4.97 |  | 
4 | Nc1nc2cc(Cl)c(C(=O)N3CCCC[C@@H]3c3ccc(F)cc3)cc2n2cncc12 [Example 6, (2R)-2-(4-fluorophenyl)piperidyl4-amino-7-chloro(10-hydroimidazo[1,5-a]quinoxalin-8-yl)one] | 7.54 | 5.57 |  | 
5 | Nc1nc2cc(F)c(C(=O)N3CCCC[C@@H]3c3ccc(F)cc3)cc2n2cncc12 [Example 7, (R)-(4-amino-7-fluoroimidazo[1,5-a]quinoxalin-8-yl)(2-(4-fluorophenyl)piperidin-1-yl)methanone] | 7.61 | 5.77 |  | 
6 | Nc1nc2cc(F)c(C(=O)N3CCC(c4ccc(C(F)(F)F)cn4)C3)cc2n2cncc12 (centres unmarked) [Example 8, (4-amino-7-fluorimidazo[1,5-a]quinoxalin-8-yl)(3-(5-(trifluoromethyl)pyridin-2-yl)pyrrolidin-1-yl)methanone] | 6.40 | < 5.00 |  | 
7 | Nc1nc2cc(F)c(C(=O)N3CC(c4ccc(C(F)(F)F)cn4)C3)cc2n2cncc12 [Example 10] | 6.10 | < 5.00 |  | 
8 | Cn1ncc2cc(C3CCCCN3C(=O)c3ccc4nc(N)c5cncn5c4c3)cnc21 (centres unmarked) [Example 23, (4-aminoimidazo[1,5-a]quinoxalin-8-yl) 2-(1-methylpyrazolo[3,4-b]pyridin-5-yl)piperidin-1-methanone] |  |  | 6.13 | < 5.00
9 | (4-amino-7-fluimidazo[1,5-a]quinoxalin-8-yl)2-(1-methylpyr azolo[3,4-b]pyridin-5-yl)piperidin-1-methanone [Example 20] |  |  | 7.08 | < 5.00

Next, values leading:

Row | pIC50 ([1]; Homo sapiens, 192 h) | pIC50 (HCT-116 wild-type cells; Homo sapiens, 192 h) | pIC50 [1] | pIC50 (HCT-116 wild-type cells) | Compound
10 | 8.49 | 7.04 |  |  | C[C@@H]1COC[C@H](c2ccc(C(F)(F)F)cc2)N1C(=O)c1cc2c(cc1F)nc(N)c1cncn12 [Example 12, (4-amino-7-fluorimidazo[1,5-a]quinoxalin-8-yl)((3R,5S)-3-methyl-5-(4-(trifluoromethyl)phenyl)morpholinyl)methanone]
11 | 6.34 | 5.38 |  |  | Nc1nc2cc(F)c(C(=O)N3CCCC(c4ccc(C(F)(F)F)cc4)C3)cc2n2cncc12 (centres unmarked) [Example 13, (4-amino-7-fluimidazo[1,5-a]quinoxalin-8-yl)(3-(4-(trifluoromethyl)phenyl)piperidin-1-yl)methanone]
12 | 6.29 | < 5.00 |  |  | Nc1nc2cc(F)c(C(=O)N3CCC[C@H](c4ccc(C(F)(F)F)cc4)C3)cc2n2cncc12 [Example 13A]
13 | < 5.52 | < 5.00 |  |  | Nc1nc2cc(F)c(C(=O)N3CCC[C@@H](c4ccc(C(F)(F)F)cc4)C3)cc2n2cncc12 [Example 13B]
14 | 6.17 | < 5.00 |  |  | Nc1nc2ccc(C(=O)N3CCCC[C@@H]3c3ccc(F)cc3)cc2n2cncc12 [Example 14, (R)-(4-aminoimidazo[1,5-a]quinoxalin-8-yl)(2-(4-fluorophenyl)piperidin-1-yl)methanone]
15 | 6.03 | < 5.00 |  |  | Nc1nc2cc(F)c(C(=O)N3CCO[C@@H](c4ccc(C(F)(F)F)cc4)C3)cc2n2cncc12 [Example 15, (S)-(4-amino-7-fluoroimidazo[1,5-a]quinoxalin-8-yl)(2-(4-(trifluoromethyl)phenyl)morpholinyl)methanone]
16 | 5.89 | < 5.00 |  |  | Nc1nc2cc(F)c(C(=O)N3CCC[C@@H]3c3ccc(C(F)(F)F)cc3)cc2n2cncc12 [Example 16, (R)-(4-amino-7-fluorimidazo[1,5-a]quinoxalin-8-yl)(2-(4-(trifluoromethyl)phenyl)pyrrolidin-1-yl)methanone]
17 | < 5.52 | < 5.00 |  |  | Nc1nc2cc(F)c(C(=O)N3CCC[C@H]3c3ccc(C(F)(F)F)cc3)cc2n2cncc12 [Example 17, (S)-(4-amino-7-fluorimidazo[1,5-a]quinoxalin-8-yl)(2-(4-(trifluoromethyl)phenyl)pyrrolidin-1-yl)methanone]
18 | 5.85 | < 5.00 |  |  | Nc1nc2ccc(C(=O)N3CCCCC3c3cnc4cccnc4c3)cc2n2cncc12 (centres unmarked) [Example 18]
19 | 6.33 | 5.19 |  |  | Nc1nc2ccc(C(=O)N3CCCCC3c3ccc(Oc4ccc(F)cc4)cc3)cc2n2cncc12 (centres unmarked) [Example 19]
20 |  |  | 7.09 | < 5.00 | Nc1nc2ccc(C(=O)N3CCCCC3c3ccc(C(F)(F)F)cn3)cc2n2cncc12 (centres unmarked) [Example 21]
21 |  |  | 7.34 | 5.09 | Nc1nc2ccc(C(=O)N3CCCCC3c3ccc(OC(F)(F)F)cc3)cc2n2cncc12 (centres unmarked) [Example 22, (4-aminoimidazo[1,5-a]quinoxalin-8-yl)2-(4-(trifluoromethoxy)phenyl)piperidin-1-yl ketone]
22 | 6.62 | < 5.00 |  |  | Nc1nc2ccc(C(=O)N3CCCCC3c3ccc4ccccc4n3)cc2n2cncc12 (centres unmarked) [Example 24]
